Measured values published in patent US20250319056A1, “METHODS FOR TREATING CANCER” (THE TRUSTEES OF INDIANA UNIVERSITY, priority 2024, published 2025).
Where two headings read alike, the source gives them in different places.

Columns and labels:
NCI-60 cancer cell panel [1] = test: NCI-60 panel single-dose cell growth screen; format: cell-based; conditions: single dose 10 μM; 0 = cytostatic, -100% = cytocidal, +100% = growth
Method: FIGS. 10A-10J show cell growth results for 10 lead candidate inhibitors (compound 162, FIG. 10A; compound 163, FIG. 10B; compound 164, FIG. 10C; compound 4, FIG. 10D; compound 165, FIG. 10E; compound 139, FIG. 10F; compound 132, FIG. 10G; compound 143, FIG. 10H; compound 147, FIG. 10I; compound 128, FIG. 10J) tested at 10 μM against the NCI cancer cell panel. Zero indicates no cells growth/death from what was initially plated (cytostatic inhibition). −100% indicates […] (cytocidal inhibition). +100% indicates cell growth.
In a previous study evaluating the anti-cancer effects of ABK inhibitors, the National Cancer Institute (NCI) database was explored for existing cytotoxicity results for any compounds bearing α,β-unsaturated ketone moieties against the comprehensive NCI-60 cancer cell panel. […] The HQ-NAH and NF-NAH inhibitor library was explored based on the similarity to Nifuroxazide's scaffold. […] Initial screening was performed at a single concentration of 10 μM, and cell growth results are presented in aggregate based on cancer cell origin (FIGS. 10A-10J).

[2] = AlamarBlue cell viability assay, non-cancerous intestine FHs-74Int cells; conditions: human, FHs-74Int non-cancerous intestine cells, Human Cell Viability CC50 Intestine (FHs 74Int), non-cancerous intestine cells, AlamarBlue, 48 h
mHSP60/10 = target: T1, mHSP60/10 (Homo sapiens, UniProt P10809); test: mHSP60/10-mediated dMDH refolding assay; format: biochemical
T1 construct: Processed human HSP60 (mHSP60—that would be in mitochondria) was expressed in Rosetta™ 2 (DE3) E. coli; octa-Histidine tag (TEV-cleavable) (N, cleaved yes); made in house; host or cells: E. coli Rosetta 2 (DE3) for mHSP60; Rosetta 2 (DE3) pLysS for HSP10

DLD-1 cells = test: AlamarBlue cell viability assay, DLD-1 colon cancer cells; format: cell-based; conditions: Homo sapiens, 48 h with compound, ^BP = curve baseline plateaued between ~10-20%, read-out: Human Cell Viability EC50 Colon Cancer (DLD1)
[3] = AlamarBlue cell viability assay, non-cancerous colon FHC cells; conditions: human, FHC non-cancerous colon cells, Human Cell Viability CC50 Colon (FHC), non-cancerous colon cells, AlamarBlue, 48 h
HT-29 cells = test: AlamarBlue cell viability assay, HT-29 colon cancer cells; format: cell-based; conditions: Homo sapiens, 48 h with compound, ^BP = curve baseline plateaued between ~10-20%
HCT-116 cells = test: AlamarBlue cell viability assay, HCT-116 colon cancer cells; format: cell-based, human; conditions: for Average Selectivity Index: CC50 non-cancer cells (FHC, FHs 74Int) compared to EC50 HCT-116; for EC50: read-out: Human Cell Viability EC50 Colon Cancer (HCT 116)
GroEL/ES = target: T2, GroEL/ES (Escherichia coli, UniProt P0A6F5); test: GroEL/ES-dMDH refolding assay; format: biochemical, E. coli
T2 construct: made in house; host or cells: NEB 5-alpha E. coli for GroEL; E. coli BL21 (DE3) for GroES

NCI-60 cancer cell panel [4] = test: NCI-60 panel dose-response cell growth testing; format: cell-based; conditions: follow-up dose response, range across NCI-60 cell lines
From the text: FIGS. 11A-11G show cell growth results in dose-response for 7 lead candidate inhibitors (compound 162, FIG. 11A; compound 164, FIG. 11B; compound 128, FIG. 11C compound 165, FIG. 11D; compound 139, FIG. 11E; compound 143, FIG. 11F; compound 147, FIG. 11G) from initial single-dose NCI-60 screen.
Therefore, they appeared to act in a cytocidal manner.

[5] = denatured malate dehydrogenase client, read-out: IC50 mHSP60/10-dMDH refolding
[6] = Homo sapiens, HCT-116, 48 h, AlamarBlue, 48 h with compound

T2 sequence (P0A6F5 2-548): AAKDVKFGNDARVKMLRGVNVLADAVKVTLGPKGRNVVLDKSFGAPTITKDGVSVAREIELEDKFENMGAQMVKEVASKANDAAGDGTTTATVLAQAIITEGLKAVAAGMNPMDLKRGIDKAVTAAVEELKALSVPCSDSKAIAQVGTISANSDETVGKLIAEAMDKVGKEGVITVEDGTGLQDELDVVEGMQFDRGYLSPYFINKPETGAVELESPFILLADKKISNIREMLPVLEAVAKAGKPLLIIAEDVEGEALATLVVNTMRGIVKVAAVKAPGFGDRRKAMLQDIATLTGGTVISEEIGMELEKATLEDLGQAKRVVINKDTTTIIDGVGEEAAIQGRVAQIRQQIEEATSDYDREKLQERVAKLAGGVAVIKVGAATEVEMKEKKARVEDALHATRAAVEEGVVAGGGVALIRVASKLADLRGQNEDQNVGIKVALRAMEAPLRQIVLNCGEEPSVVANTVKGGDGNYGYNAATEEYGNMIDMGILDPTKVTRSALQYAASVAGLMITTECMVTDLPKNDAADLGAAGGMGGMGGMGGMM
T1 sequence (P10809 27-573): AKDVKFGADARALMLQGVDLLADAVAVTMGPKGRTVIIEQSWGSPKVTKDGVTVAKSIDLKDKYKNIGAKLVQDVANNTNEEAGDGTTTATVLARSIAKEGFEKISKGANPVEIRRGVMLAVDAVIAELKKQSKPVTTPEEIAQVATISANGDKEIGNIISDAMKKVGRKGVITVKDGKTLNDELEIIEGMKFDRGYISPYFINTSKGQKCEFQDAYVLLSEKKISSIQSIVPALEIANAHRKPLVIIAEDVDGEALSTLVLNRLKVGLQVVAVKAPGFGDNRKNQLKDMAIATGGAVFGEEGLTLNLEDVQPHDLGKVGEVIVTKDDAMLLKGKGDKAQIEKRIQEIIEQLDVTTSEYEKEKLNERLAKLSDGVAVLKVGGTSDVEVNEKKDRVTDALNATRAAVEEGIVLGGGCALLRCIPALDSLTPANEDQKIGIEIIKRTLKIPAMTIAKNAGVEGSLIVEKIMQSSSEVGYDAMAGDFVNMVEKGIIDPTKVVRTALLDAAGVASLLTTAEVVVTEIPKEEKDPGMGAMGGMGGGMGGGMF

SMILES | cell growth % NCI cancer cell panel (NCI-60 cancer cell panel [1]) | CC50 at 48 h [2] | IC50 (mHSP60/10; [5]) | EC50 (DLD-1 cells) | CC50 at 48 h [3] | EC50 (HT-29 cells) | Average Selectivity Index (HCT-116 cells) | EC50 (HCT-116 cells; [6]) | IC50 (GroEL/ES) | IC50 (mHSP60/10) | EC50 (HCT-116 cells; Homo sapiens, HCT-116, 48 h) | EC50 (HCT-116 cells; AlamarBlue, 48 h with compound) | GI50 (NCI-60 cancer cell panel [4])
O=C(/C=C/c1cccc([N+](=O)[O-])c1)c1ccc(NC(=O)c2ccco2)cc1 [Compound 4, (E)-N-(4-(3-(3-nitrophenyl)acryloyl)phenyl)furan-2-carboxamide] | largely inactive | 54 µM | 0.8 to 9 µM | 39.7 µM | > 100 µM | 3.6 µM | 19.1 | 4 µM | 0.8 to 9 µM | – | – | – | –
COc1ccc(-c2ccc3cc(C(=O)O)ccc3c2)cc1C12CC3CC(CC(C3)C1)C2 [Compound 25, Adapalene, reference compound] | – | 18.5 µM | 0.8 to 9 µM | 7.9 µM | 43.7 µM | 5.3 µM | 5.4 | 5.8 µM | 0.8 to 9 µM | – | – | – | –
Oc1c(Cl)cc(Cl)c(Cl)c1Cc1c(O)c(Cl)cc(Cl)c1Cl [Compound 32, Hexachlorophene, reference compound] | – | – | – | – | – | – | – | – | 0.8 to 9 µM | 0.8 to 9 µM | 4.6 µM | – | –
CN(C)c1ccc(C(=C2C=CC(=[N+](C)C)C=C2)c2ccc(N(C)C)cc2)cc1 [Compound 56, Crystal Violet, reference compound] | – | 1.6 µM | 0.8 to 9 µM | 0.2 µM | 8.6 µM | 0.1 µM | 9.4 | 0.54 µM | 0.8 to 9 µM | – | – | 0.5 µM | –
CCCCCOc1ccc(/C=C2\Oc3c(ccc(O)c3O)C2=O)c(O)c1 [Compound 86] | – | > 100 µM | 0.8 to 9 µM | 23 µM | > 100 µM | 5.9 µM | 8.0 | 12.5 µM | 0.8 to 9 µM | – | – | – | –
Oc1cccc(C(Nc2nccs2)c2ccc3cccnc3c2O)c1 (stereo not shown) [Compound 90] | – | 64.6 µM | 0.8 to 9 µM | 15 µM | 66.6 µM | 8.3 µM | 26.2 | 2.5 µM | 0.8 to 9 µM | – | – | – | –
O=C(N/N=C/c1ccc([N+](=O)[O-])o1)c1cccc(Oc2ccccc2)c1 [Compound 128, N′-((5-nitrofuran-2-yl)methylene)-3-phenoxybenzohydrazide] | a range of positive, negative, and zero growth | 60 µM | – | 7.3 µM | 61 µM | 1.6 µM | 17.4 | 3.5 µM | – | – | – | – | 1 to 31 µM
O=C(N/N=C/c1ccc(O)c2ncccc12)c1ccccc1 [Compound 137] | – | 57 µM | – | 2.8 µM | 74 µM | 2.5 µM | 11 | 6.1 µM | – | – | – | – | –
O=C(N/N=C/c1ccc(O)c2ncccc12)c1ccc(O)cc1 [Compound 139, 4-hydroxy-N′-((8-hydroxyquinolin-5-yl)methylene)benzohydrazide] | around 0% | 56 µM | – | 19 µM | > 100 µM | 6.3 µM | 11 | 7.4 µM | – | – | – | – | 1 to 5 µM
O=C(N/N=C/c1ccc(O)c2ncccc12)c1cccc2ccccc12 [Compound 141] | – | 60 µM | – | 1.6 µM | 46 µM | 1.5 µM | 13 | 4.1 µM | – | – | – | – | –
O=C(N/N=C/c1ccc(O)c2ncccc12)c1ccccc1Oc1ccccc1 [Compound 142] | – | 87 µM | – | 1.6 µM | 71 µM | 3.7 µM | 13 | 6.3 µM | – | – | – | – | –
O=C(N/N=C/c1ccc(O)c2ncccc12)c1cccc(Oc2ccccc2)c1 [Compound 143, N′-((8-hydroxyquinolin-5-yl)methylene)-3-phenoxybenzohydrazide] | negative % growth | 21 µM | – | – | 41 µM | – | 4.8 | 6.5 µM | – | – | – | – | 0.2 to 0.4 µM
CCN(CC)S(=O)(=O)c1cccc(C(=O)N/N=C/c2ccc(O)c3ncccc23)c1 [Compound 144] | – | 59 µM | – | 1.3 µM | 34 µM | 4.4 µM | 9.5 | 4.9 µM | – | – | – | – | –
O=C(N/N=C/c1ccc(O)c2ncccc12)c1ccc(NS(=O)(=O)c2cccs2)cc1 [Compound 145] | – | 6.1 µM | – | 5.7 µM | 24 µM | 2.9 µM | 6.2 | 2.4 µM | – | – | – | – | –
